Reference: PubChem BioAssay (NCI)
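Protocol summary: plate cells (96-well), add compound at 5 concentrations, incubate 48 h, interpolate endpoints linearly. The concentration for full growth arrest is given as TGI.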

What was measured:
Assay in all cases: NCI-60 cell line screen, 48 h
786-0 renal = system: 786-0 renal
A498 renal = system: A498 renal
A549 NSCLC = system: A549 NSCLC
ACHN renal = system: ACHN renal
BT-549 breast = system: BT-549 breast
CAKI-1 renal = system: CAKI-1 renal
CCRF-CEM leukemia = system: CCRF-CEM leukemia
DU-145 prostate = system: DU-145 prostate
EKVX NSCLC = system: EKVX NSCLC
HCC-2998 colon = system: HCC-2998 colon
HCT-116 colon = system: HCT-116 colon
HCT-15 colon = system: HCT-15 colon
HL-60(TB) leukemia = system: HL-60(TB) leukemia
HOP-62 NSCLC = system: HOP-62 NSCLC
HOP-92 NSCLC = system: HOP-92 NSCLC
HS 578T breast = system: HS 578T breast
HT29 colon = system: HT29 colon
IGROV1 ovarian = system: IGROV1 ovarian
K-562 leukemia = system: K-562 leukemia
KM12 colon = system: KM12 colon
LOX IMVI melanoma = system: LOX IMVI melanoma
M14 melanoma = system: M14 melanoma
MALME-3M melanoma = system: MALME-3M melanoma
MCF7 breast = system: MCF7 breast
MDA-MB-231 breast = system: MDA-MB-231 breast
MDA-MB-435 = system: MDA-MB-435
MDA-N = system: MDA-N
MOLT-4 leukemia = system: MOLT-4 leukemia
NCI-H226 lung = system: NCI-H226 lung
NCI-H23 lung = system: NCI-H23 lung
NCI-H460 lung = system: NCI-H460 lung
NCI-H522 lung = system: NCI-H522 lung
NCI/ADR-RES ovarian = system: NCI/ADR-RES ovarian
OVCAR-3 ovarian = system: OVCAR-3 ovarian
OVCAR-4 ovarian = system: OVCAR-4 ovarian
OVCAR-5 ovarian = system: OVCAR-5 ovarian
OVCAR-8 ovarian = system: OVCAR-8 ovarian
PC-3 prostate = system: PC-3 prostate
RPMI-8226 leukemia = system: RPMI-8226 leukemia
RXF 393 renal = system: RXF 393 renal
SF-268 CNS = system: SF-268 CNS
SF-295 CNS = system: SF-295 CNS
SF-539 CNS = system: SF-539 CNS
SK-MEL-28 melanoma = system: SK-MEL-28 melanoma
SK-MEL-5 melanoma = system: SK-MEL-5 melanoma
SN12C renal = system: SN12C renal
SNB-19 CNS = system: SNB-19 CNS
SNB-75 CNS = system: SNB-75 CNS
SR leukemia = system: SR leukemia
SW-620 colon = system: SW-620 colon
T-47D breast = system: T-47D breast
TK-10 renal = system: TK-10 renal
U251 CNS = system: U251 CNS
UACC-257 melanoma = system: UACC-257 melanoma
UACC-62 melanoma = system: UACC-62 melanoma
UO-31 renal = system: UO-31 renal
COLO 205 colon = system: COLO 205 colon
SK-MEL-2 melanoma = system: SK-MEL-2 melanoma
SK-OV-3 ovarian = system: SK-OV-3 ovarian

CC(=O)O[C@H]1CC[C@H]2[C@@H]3CCC4=C(C(=O)C=CC4(C)OC(C)=O)[C@H]3CC[C@]12C (stereo partly specified)
TGI (786-0 renal): > 100 µM | TGI (A498 renal): > 100 µM | TGI (A549 NSCLC): > 100 µM | TGI (ACHN renal): > 100 µM | TGI (BT-549 breast): > 100 µM | TGI (CAKI-1 renal): > 100 µM | TGI (CCRF-CEM leukemia): > 100 µM | TGI (DU-145 prostate): > 100 µM | TGI (EKVX NSCLC): > 100 µM | TGI (HCC-2998 colon): > 100 µM | TGI (HCT-116 colon): > 100 µM | TGI (HCT-15 colon): > 100 µM | TGI (HL-60(TB) leukemia): 97.1 µM | TGI (HOP-62 NSCLC): > 100 µM | TGI (HOP-92 NSCLC): > 100 µM | TGI (HS 578T breast): > 100 µM | TGI (HT29 colon): > 100 µM | TGI (IGROV1 ovarian): > 100 µM | TGI (K-562 leukemia): > 100 µM | TGI (KM12 colon): > 100 µM | TGI (LOX IMVI melanoma): > 100 µM | TGI (M14 melanoma): > 100 µM | TGI (MALME-3M melanoma): > 100 µM | TGI (MCF7 breast): 73.1 µM | TGI (MDA-MB-231 breast): > 100 µM | TGI (MDA-MB-435): > 100 µM | TGI (MDA-N): > 100 µM | TGI (MOLT-4 leukemia): > 100 µM | TGI (NCI-H226 lung): > 100 µM | TGI (NCI-H23 lung): > 100 µM | TGI (NCI-H460 lung): > 100 µM | TGI (NCI-H522 lung): > 100 µM | TGI (NCI/ADR-RES ovarian): > 100 µM | TGI (OVCAR-3 ovarian): > 100 µM | TGI (OVCAR-4 ovarian): > 100 µM | TGI (OVCAR-5 ovarian): > 100 µM | TGI (OVCAR-8 ovarian): > 100 µM | TGI (PC-3 prostate): > 100 µM | TGI (RPMI-8226 leukemia): > 100 µM | TGI (RXF 393 renal): 92.1 µM | TGI (SF-268 CNS): > 100 µM | TGI (SF-295 CNS): > 100 µM | TGI (SF-539 CNS): > 100 µM | TGI (SK-MEL-28 melanoma): > 100 µM | TGI (SK-MEL-5 melanoma): > 100 µM | TGI (SN12C renal): > 100 µM | TGI (SNB-19 CNS): > 100 µM | TGI (SNB-75 CNS): > 100 µM | TGI (SR leukemia): > 100 µM | TGI (SW-620 colon): > 100 µM | TGI (T-47D breast): > 100 µM | TGI (TK-10 renal): > 100 µM | TGI (U251 CNS): > 100 µM | TGI (UACC-257 melanoma): > 100 µM | TGI (UACC-62 melanoma): 74.5 µM | TGI (UO-31 renal): > 100 µM

c1ccc(/N=N\Nc2ccc(-c3nc4ccccc4o3)cc2)nc1
TGI (786-0 renal): > 100 µM | TGI (A498 renal): > 100 µM | TGI (A549 NSCLC): > 100 µM | TGI (ACHN renal): > 100 µM | TGI (BT-549 breast): > 100 µM | TGI (COLO 205 colon): 49.2 µM | TGI (DU-145 prostate): > 100 µM | TGI (EKVX NSCLC): 88.2 µM | TGI (HCC-2998 colon): 55.4 µM | TGI (HCT-116 colon): > 100 µM | TGI (HCT-15 colon): > 100 µM | TGI (HL-60(TB) leukemia): > 100 µM | TGI (HOP-62 NSCLC): > 100 µM | TGI (HOP-92 NSCLC): > 100 µM | TGI (HS 578T breast): > 100 µM | TGI (HT29 colon): > 100 µM | TGI (IGROV1 ovarian): > 100 µM | TGI (K-562 leukemia): > 100 µM | TGI (KM12 colon): > 100 µM | TGI (LOX IMVI melanoma): > 100 µM | TGI (M14 melanoma): > 100 µM | TGI (MALME-3M melanoma): > 100 µM | TGI (MCF7 breast): > 100 µM | TGI (MDA-MB-231 breast): > 100 µM | TGI (MDA-MB-435): > 100 µM | TGI (MDA-N): > 100 µM | TGI (MOLT-4 leukemia): 61.1 µM | TGI (NCI-H23 lung): > 100 µM | TGI (NCI-H460 lung): > 100 µM | TGI (NCI-H522 lung): > 100 µM | TGI (NCI/ADR-RES ovarian): > 100 µM | TGI (OVCAR-3 ovarian): > 100 µM | TGI (OVCAR-4 ovarian): > 100 µM | TGI (OVCAR-5 ovarian): > 100 µM | TGI (OVCAR-8 ovarian): > 100 µM | TGI (PC-3 prostate): > 100 µM | TGI (SF-268 CNS): > 100 µM | TGI (SF-539 CNS): > 100 µM | TGI (SK-MEL-2 melanoma): > 100 µM | TGI (SK-MEL-28 melanoma): > 100 µM | TGI (SK-MEL-5 melanoma): 30.3 µM | TGI (SK-OV-3 ovarian): > 100 µM | TGI (SN12C renal): > 100 µM | TGI (SNB-19 CNS): > 100 µM | TGI (SNB-75 CNS): 85.8 µM | TGI (SR leukemia): > 100 µM | TGI (SW-620 colon): 42.1 µM | TGI (T-47D breast): 87.1 µM | TGI (TK-10 renal): > 100 µM | TGI (U251 CNS): > 100 µM | TGI (UACC-257 melanoma): 83 µM | TGI (UACC-62 melanoma): > 100 µM | TGI (UO-31 renal): > 100 µM

Cn1c(=O)c2[nH]c(C3CC(=O)CC(c4nc5c([nH]4)c(=O)n(C)c(=O)n5C)N3)nc2n(C)c1=O (stereo unspecified)
TGI (786-0 renal): > 100 µM | TGI (A498 renal): > 100 µM | TGI (A549 NSCLC): > 100 µM | TGI (ACHN renal): > 100 µM | TGI (BT-549 breast): > 100 µM | TGI (CAKI-1 renal): > 100 µM | TGI (CCRF-CEM leukemia): > 100 µM | TGI (COLO 205 colon): > 100 µM | TGI (DU-145 prostate): > 100 µM | TGI (EKVX NSCLC): > 100 µM | TGI (HCT-116 colon): > 100 µM | TGI (HCT-15 colon): > 100 µM | TGI (HL-60(TB) leukemia): > 100 µM | TGI (HOP-62 NSCLC): > 100 µM | TGI (HS 578T breast): > 100 µM | TGI (HT29 colon): > 100 µM | TGI (IGROV1 ovarian): > 100 µM | TGI (K-562 leukemia): > 100 µM | TGI (KM12 colon): > 100 µM | TGI (LOX IMVI melanoma): > 100 µM | TGI (M14 melanoma): > 100 µM | TGI (MALME-3M melanoma): > 100 µM | TGI (MCF7 breast): > 100 µM | TGI (MDA-MB-231 breast): > 100 µM | TGI (MDA-MB-435): > 100 µM | TGI (MDA-N): > 100 µM | TGI (MOLT-4 leukemia): > 100 µM | TGI (NCI-H226 lung): > 100 µM | TGI (NCI-H23 lung): > 100 µM | TGI (NCI-H460 lung): > 100 µM | TGI (NCI-H522 lung): > 100 µM | TGI (NCI/ADR-RES ovarian): > 100 µM | TGI (OVCAR-3 ovarian): > 100 µM | TGI (OVCAR-4 ovarian): > 100 µM | TGI (OVCAR-5 ovarian): > 100 µM | TGI (OVCAR-8 ovarian): > 100 µM | TGI (PC-3 prostate): > 100 µM | TGI (RPMI-8226 leukemia): > 100 µM | TGI (RXF 393 renal): > 100 µM | TGI (SF-268 CNS): > 100 µM | TGI (SF-295 CNS): > 100 µM | TGI (SF-539 CNS): > 100 µM | TGI (SK-MEL-2 melanoma): > 100 µM | TGI (SK-MEL-28 melanoma): > 100 µM | TGI (SK-MEL-5 melanoma): > 100 µM | TGI (SK-OV-3 ovarian): > 100 µM | TGI (SN12C renal): > 100 µM | TGI (SNB-19 CNS): > 100 µM | TGI (SNB-75 CNS): > 100 µM | TGI (SR leukemia): > 100 µM | TGI (SW-620 colon): > 100 µM | TGI (T-47D breast): > 100 µM | TGI (TK-10 renal): > 100 µM | TGI (U251 CNS): > 100 µM | TGI (UACC-257 melanoma): > 100 µM | TGI (UACC-62 melanoma): > 100 µM | TGI (UO-31 renal): > 100 µM
